Measurements reported in US20120245137A1 (Zalicus Pharmaceuticals Ltd., priority 2009, published 2012).
Like-named read-outs stand apart in the source and are kept apart here.

What was measured:
Format in all cases: cell-based
Human Cav 2.2 channels = Human Cav 2.2 channels (Homo sapiens, UniProt Q00975); experiment: Fluorescent assay for CaV2.2 channels using potassium depolarization (VIPR/FLIPR); conditions: FLIPR data
Procedure, shortened: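 Fluo-4 calcium fluorescence (480/535 nm) was recorded on VIPR or FLIPR after depolarization to 70 mM final potassium. Before this, cells were preincubated 30 min at 25 °C with compound in 4–30 mM potassium, so that state-dependent block could be assessed; the cells were HEK293 coexpressing Cav2.2, α2δ, β and Kir2.3.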

T-type calcium channel [1] = target: T-type calcium channel (Homo sapiens, UniProt O43497); experiment: T-type channel blocking, FLIPR data (Table 6); conditions: CAv3.1
Excerpt: (§1) Another method, high-throughput spectrophotometric assay, utilizes loading of the cell lines with a fluorescent dye sensitive to intracellular calcium concentration and subsequent examination of the effects of compounds on the ability of depolarization by potassium chloride or other means to alter intracellular calcium levels.

T-type calcium channel [2] = target: T-type calcium channel (Homo sapiens, UniProt O95180); experiment: T-type channel blocking, FLIPR data (Table 6); conditions: for CAv3.2 IC50 Ratio closed/inact.: CAv3.2, ratio closed/inact.
Excerpt: as §1

CAv1.2 = CAv1.2 (Homo sapiens, UniProt Q13936); experiment: L-type (CAv1.2) channel blocking, FLIPR data (Table 6)
[3] = closed state, read-out: CAv2.2 IC50 Closed
[4] = inactivated state, read-out: CAv2.2 IC50 Inact.
[5] = CAv3.2, closed state, read-out: CAv3.2 IC50 Closed
[6] = CAv3.2, inactivated state, read-out: CAv3.2 IC50 Inact.
[7] = closed state, read-out: CAv1.2 IC50 Closed
[8] = inactivated state, read-out: CAv1.2 IC50 Inact.

Human Cav 2.2 channels, sequence (Q00975 whole entry): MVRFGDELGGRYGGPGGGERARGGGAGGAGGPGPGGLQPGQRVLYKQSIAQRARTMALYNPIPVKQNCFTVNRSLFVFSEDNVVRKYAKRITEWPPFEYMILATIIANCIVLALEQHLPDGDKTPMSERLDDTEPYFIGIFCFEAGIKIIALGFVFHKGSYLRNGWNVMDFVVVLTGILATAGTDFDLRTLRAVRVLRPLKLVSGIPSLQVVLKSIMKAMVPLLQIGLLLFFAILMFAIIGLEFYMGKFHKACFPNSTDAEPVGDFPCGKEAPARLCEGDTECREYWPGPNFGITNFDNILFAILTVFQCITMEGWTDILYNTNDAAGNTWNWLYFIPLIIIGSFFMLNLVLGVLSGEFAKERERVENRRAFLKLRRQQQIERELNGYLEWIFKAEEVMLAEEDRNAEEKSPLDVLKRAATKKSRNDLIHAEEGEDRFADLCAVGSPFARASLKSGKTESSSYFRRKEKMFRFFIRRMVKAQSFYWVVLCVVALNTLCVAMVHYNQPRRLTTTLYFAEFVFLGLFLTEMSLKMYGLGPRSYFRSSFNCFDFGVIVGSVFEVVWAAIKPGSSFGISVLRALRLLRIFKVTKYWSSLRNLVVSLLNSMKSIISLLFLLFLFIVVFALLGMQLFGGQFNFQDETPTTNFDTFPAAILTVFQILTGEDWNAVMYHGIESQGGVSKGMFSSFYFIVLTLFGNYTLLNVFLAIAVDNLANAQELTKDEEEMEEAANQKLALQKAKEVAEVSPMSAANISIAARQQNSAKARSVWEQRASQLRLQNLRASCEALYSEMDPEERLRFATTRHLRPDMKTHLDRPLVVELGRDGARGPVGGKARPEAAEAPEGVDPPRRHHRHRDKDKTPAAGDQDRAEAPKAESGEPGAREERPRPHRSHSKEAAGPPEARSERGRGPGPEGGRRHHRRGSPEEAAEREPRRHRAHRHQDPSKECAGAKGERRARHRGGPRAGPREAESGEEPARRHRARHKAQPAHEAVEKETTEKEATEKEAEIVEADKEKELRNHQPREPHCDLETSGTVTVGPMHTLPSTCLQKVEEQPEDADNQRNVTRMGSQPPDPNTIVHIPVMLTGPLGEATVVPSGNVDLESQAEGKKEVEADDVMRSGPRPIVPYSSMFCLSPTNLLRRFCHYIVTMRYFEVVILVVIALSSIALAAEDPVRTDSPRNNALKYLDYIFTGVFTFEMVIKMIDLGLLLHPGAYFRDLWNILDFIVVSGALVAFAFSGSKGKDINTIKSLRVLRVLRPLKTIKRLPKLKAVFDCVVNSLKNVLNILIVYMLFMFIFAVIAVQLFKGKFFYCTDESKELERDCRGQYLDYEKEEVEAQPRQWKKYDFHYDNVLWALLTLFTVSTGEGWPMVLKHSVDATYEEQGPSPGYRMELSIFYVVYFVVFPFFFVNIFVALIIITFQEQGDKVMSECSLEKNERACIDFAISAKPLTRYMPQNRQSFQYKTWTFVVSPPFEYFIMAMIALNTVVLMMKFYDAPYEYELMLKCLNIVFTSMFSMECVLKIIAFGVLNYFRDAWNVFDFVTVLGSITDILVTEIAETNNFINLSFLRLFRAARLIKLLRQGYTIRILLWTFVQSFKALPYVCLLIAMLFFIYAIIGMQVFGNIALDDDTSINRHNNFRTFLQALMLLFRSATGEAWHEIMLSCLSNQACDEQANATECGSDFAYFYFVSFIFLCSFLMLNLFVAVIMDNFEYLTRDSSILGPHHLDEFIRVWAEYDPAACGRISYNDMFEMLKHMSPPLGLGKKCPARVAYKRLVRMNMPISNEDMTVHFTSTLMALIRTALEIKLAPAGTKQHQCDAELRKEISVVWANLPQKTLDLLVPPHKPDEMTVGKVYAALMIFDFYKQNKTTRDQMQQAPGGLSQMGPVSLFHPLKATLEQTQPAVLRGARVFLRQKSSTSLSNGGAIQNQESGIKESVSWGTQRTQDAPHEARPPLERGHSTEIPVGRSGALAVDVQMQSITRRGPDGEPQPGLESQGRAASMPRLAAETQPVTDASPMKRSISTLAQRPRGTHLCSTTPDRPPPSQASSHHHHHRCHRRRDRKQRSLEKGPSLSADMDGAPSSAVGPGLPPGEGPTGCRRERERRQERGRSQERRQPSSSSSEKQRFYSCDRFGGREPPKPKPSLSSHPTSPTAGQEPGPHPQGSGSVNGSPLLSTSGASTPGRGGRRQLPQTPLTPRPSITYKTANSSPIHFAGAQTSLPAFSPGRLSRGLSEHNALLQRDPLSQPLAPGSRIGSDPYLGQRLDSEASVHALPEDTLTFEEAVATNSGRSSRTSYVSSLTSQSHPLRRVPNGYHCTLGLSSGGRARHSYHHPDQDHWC
Human Cav 2.2 channels, sequence (P54289 25-1103 partner): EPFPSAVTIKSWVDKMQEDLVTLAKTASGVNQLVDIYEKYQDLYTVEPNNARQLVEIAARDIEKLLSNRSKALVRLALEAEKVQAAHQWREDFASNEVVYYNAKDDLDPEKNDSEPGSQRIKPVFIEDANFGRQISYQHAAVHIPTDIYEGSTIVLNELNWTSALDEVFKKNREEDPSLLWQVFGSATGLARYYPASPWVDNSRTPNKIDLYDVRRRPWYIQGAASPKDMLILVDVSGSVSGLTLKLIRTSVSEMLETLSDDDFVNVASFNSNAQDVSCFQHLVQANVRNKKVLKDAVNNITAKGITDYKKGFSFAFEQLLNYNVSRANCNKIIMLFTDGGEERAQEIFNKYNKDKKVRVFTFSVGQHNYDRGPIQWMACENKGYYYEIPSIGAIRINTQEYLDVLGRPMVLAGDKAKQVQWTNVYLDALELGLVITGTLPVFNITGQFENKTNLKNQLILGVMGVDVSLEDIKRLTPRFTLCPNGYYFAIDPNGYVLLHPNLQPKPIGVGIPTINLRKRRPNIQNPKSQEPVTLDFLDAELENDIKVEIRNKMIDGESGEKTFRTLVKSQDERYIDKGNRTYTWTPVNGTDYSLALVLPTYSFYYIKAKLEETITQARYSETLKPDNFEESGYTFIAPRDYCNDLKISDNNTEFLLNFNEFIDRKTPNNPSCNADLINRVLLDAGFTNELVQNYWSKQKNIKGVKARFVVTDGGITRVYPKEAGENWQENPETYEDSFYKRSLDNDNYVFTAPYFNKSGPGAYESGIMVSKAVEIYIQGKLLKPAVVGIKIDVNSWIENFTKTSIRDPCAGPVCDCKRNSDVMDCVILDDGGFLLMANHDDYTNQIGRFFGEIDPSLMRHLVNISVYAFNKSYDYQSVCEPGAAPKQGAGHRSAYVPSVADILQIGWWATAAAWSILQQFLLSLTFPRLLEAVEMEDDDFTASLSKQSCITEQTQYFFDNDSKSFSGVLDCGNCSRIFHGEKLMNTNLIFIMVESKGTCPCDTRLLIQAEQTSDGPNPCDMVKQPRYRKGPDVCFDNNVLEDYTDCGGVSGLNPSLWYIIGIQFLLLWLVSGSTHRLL
Human Cav 2.2 channels, sequence (P54284 whole entry partner): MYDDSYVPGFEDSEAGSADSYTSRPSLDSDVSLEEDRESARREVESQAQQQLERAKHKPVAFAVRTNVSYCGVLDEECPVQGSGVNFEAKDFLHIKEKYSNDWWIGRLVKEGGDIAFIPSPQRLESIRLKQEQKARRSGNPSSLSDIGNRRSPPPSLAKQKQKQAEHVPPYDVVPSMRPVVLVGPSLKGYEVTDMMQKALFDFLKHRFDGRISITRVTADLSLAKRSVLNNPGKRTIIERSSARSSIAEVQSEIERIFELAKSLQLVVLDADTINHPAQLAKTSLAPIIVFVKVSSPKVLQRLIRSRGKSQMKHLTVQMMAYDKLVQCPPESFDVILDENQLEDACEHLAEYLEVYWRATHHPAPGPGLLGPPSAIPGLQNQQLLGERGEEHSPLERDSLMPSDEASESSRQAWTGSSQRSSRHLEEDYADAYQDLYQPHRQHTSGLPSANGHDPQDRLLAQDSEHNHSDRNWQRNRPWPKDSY

| SMILES | IC50 (Human Cav 2.2 channels; [3]) | IC50 (Human Cav 2.2 channels; [4]) | CAv2.2 IC50 Ratio closed/inact. (Human Cav 2.2 channels) | IC50 (T-type calcium channel [1]) | IC50 (T-type calcium channel [2]; [5]) | IC50 (T-type calcium channel [2]; [6]) | CAv3.2 IC50 Ratio closed/inact. (T-type calcium channel [2]) | IC50 (CAv1.2; [7]) | IC50 (CAv1.2; [8]) | CAv1.2 IC50 Ratio closed/inact. (CAv1.2) |
| --- | --- | --- | --- | --- | --- | --- | --- | --- | --- | --- |
| CC(C)([C@H]1C[C@H](CNc2ccc(Cl)c(F)c2)C1)S(=O)(=O)c1cccc(C(F)(F)F)c1 [Compound 751] | 3930 nM | 300 nM | 13.1 | 4530 nM | ≥ 10000 nM | 1480 nM | 6.8 | 4720 nM | 1350 nM | 3.5 |
| CC(C)([C@H]1C[C@H](CNc2cc(C(F)(F)F)n[nH]2)C1)S(=O)(=O)c1cccc(C(F)(F)F)c1 [Compound 752] | 3700 nM | 280 nM | 13.2 | 4910 nM | 5860 nM | 1880 nM | 3.1 | 8600 nM | 2810 nM | 3.1 |
| CC(C)([C@H]1C[C@@H](CNc2ccc(F)c(Cl)c2)C1)S(=O)(=O)c1cccc(C(F)(F)F)c1 [Compound 753] | 3800 nM | 330 nM | 11.5 | 4450 nM | ≥ 10000 nM | 1630 nM | 6.1 | 7420 nM | 1510 nM | 4.9 |
| CC(C)([C@H]1C[C@@H](CNc2cc(C(F)(F)F)n[nH]2)C1)S(=O)(=O)c1cccc(C(F)(F)F)c1 [Compound 755] | 4480 nM | 750 nM | 6 | 5250 nM | ≥ 10000 nM | 2490 nM | 4 | 8170 nM | 3880 nM | 2.1 |
| CC(C)([C@H]1C[C@@H](C(=O)Nc2ccc(C(F)(F)F)cc2)C1)S(=O)(=O)c1cccc(C(F)(F)F)c1 [Compound 756] | 3900 nM | 390 nM | 10 | 1590 nM | 3520 nM | 1200 nM | 2.9 | 4190 nM | 1370 nM | 3.1 |
| CC(C)([C@H]1C[C@@H](C(=O)Nc2cc(C(F)(F)F)n[nH]2)C1)S(=O)(=O)c1cccc(C(F)(F)F)c1 [Compound 757] | 5790 nM | 550 nM | 10.5 | 2220 nM | 6060 nM | 2290 nM | 2.6 | ≥ 10000 nM | 5390 nM | 1.9 |
| CC(C)([C@H]1C[C@@H](C(=O)Nc2ccc(C(F)(F)F)cn2)C1)S(=O)(=O)c1cccc(C(F)(F)F)c1 [Compound 758] | 2540 nM | 390 nM | 6.5 | 2130 nM | 4060 nM | 1970 nM | 2.1 | 3560 nM | 1880 nM | 1.9 |
| CC(C)([C@H]1C[C@@H](C(=O)Nc2ccc(C(F)(F)F)nc2)C1)S(=O)(=O)c1cccc(C(F)(F)F)c1 [Compound 759] | 3670 nM | 480 nM | 7.6 | 2270 nM | 3550 nM | 2070 nM | 1.7 | 5100 nM | 2180 nM | 2.3 |
| CC(C)([C@H]1C[C@H](C(=O)Nc2ccc(C(F)(F)F)nc2)C1)S(=O)(=O)c1cccc(C(F)(F)F)c1 [Compound 760] | 2870 nM | 190 nM | 15.1 | 2800 nM | 4620 nM | 730 nM | 6.3 | ≥ 10000 nM | 3550 nM | 2.8 |
| CC(C)([C@H]1C[C@H](C(=O)Nc2ccc(Cl)cn2)C1)S(=O)(=O)c1cccc(C(F)(F)F)c1 [Compound 761] | 1600 nM | 150 nM | 10.7 | 4190 nM | ≥ 10000 nM | 1710 nM | 5.8 | 8540 nM | 4610 nM | 1.9 |
| CC(C)([C@H]1C[C@H](C(=O)Nc2cc(C(F)(F)F)n[nH]2)C1)S(=O)(=O)c1cccc(C(F)(F)F)c1 [Compound 762] | 6260 nM | 390 nM | 16.1 | 2630 nM | ≥ 10000 nM | 1840 nM | 5.4 | ≥ 10000 nM | 7230 nM | 1.4 |
| CC(C)([C@H]1C[C@H](C(=O)Nc2ccc(C(F)(F)F)cc2Cl)C1)S(=O)(=O)c1cccc(C(F)(F)F)c1 [Compound 763] | 2040 nM | 270 nM | 7.6 | 6440 nM | 7020 nM | 960 nM | 7.3 | ≥ 10000 nM | 2190 nM | 4.6 |
| CC(C)([C@H]1C[C@H](C(=O)NCc2ccc(Oc3ccccc3)cc2)C1)S(=O)(=O)c1cccc(C(F)(F)F)c1 [Compound 764] | 1020 nM | 110 nM | 9.3 | 780 nM | 2900 nM | 430 nM | 6.7 | 3240 nM | 830 nM | 3.9 |
| CC(C)([C@H]1C[C@H](C(=O)Nc2ccc(C(F)(F)F)cc2)C1)S(=O)(=O)c1cccc(C(F)(F)F)c1 [Compound 765] | 3400 nM | 420 nM | 8.1 | 2010 nM | 4600 nM | 1500 nM | 3.1 | 6710 nM | 2250 nM | 3 |
| CC(C)([C@H]1C[C@H](C(=O)Nc2ccc(C(F)(F)F)cn2)C1)S(=O)(=O)c1cccc(C(F)(F)F)c1 [Compound 766] | 1690 nM | 130 nM | 13 | 2650 nM | 4200 nM | 2380 nM | 1.8 | 3720 nM | 2070 nM | 1.8 |
| CC(C)([C@H]1C[C@H](C(=O)NCc2ccc(C(F)(F)F)nc2)C1)S(=O)(=O)c1cccc(C(F)(F)F)c1 [Compound 767] | 5370 nM | 570 nM | 9.4 | ≥ 10000 nM | ≥ 10000 nM | 9570 nM | 1 | ≥ 10000 nM | 5140 nM | 1.9 |
| Cc1nc(C(F)(F)F)ccc1NC(=O)[C@H]1C[C@H](C(C)(C)S(=O)(=O)c2cccc(C(F)(F)F)c2)C1 [Compound 768] | 4170 nM | 390 nM | 10.7 | 4570 nM | 6820 nM | 3560 nM | 1.9 | ≥ 10000 nM | 4420 nM | 2.3 |
